{"source": "the NIST ThermoML archive (doi:10.1021/acs.jced.5b00527)", "key": {"[1]": {"details": "298.15 K; 101.33 kPa; Liquid; Vibrating tube method"}, "[2]": {"test": "refractive index (Na D-line) (dimensionless)", "details": "298.15 K; 101.33 kPa; Liquid; Standard Abbe refractometry"}}, "note": "± gives the expanded uncertainty stated by the source."}
{"compound": "CC(C)C(=O)O", "note": "[2-methylpropanoic acid]", "values": [{"measurement": "mass density", "setting": "[1]", "result": "941.63 ± 6", "unit": "kg/m3"}, {"measurement": "refractive index", "setting": "[2]", "result": "1.3899 ± 0.0041"}]}
{"compound": "CCCCO", "note": "[butan-1-ol]", "values": [{"measurement": "mass density", "setting": "[1]", "result": "807.96 ± 6", "unit": "kg/m3"}, {"measurement": "refractive index", "setting": "[2]", "result": "1.3941 ± 0.0041"}]}
{"compound": "CCCC(=O)O", "note": "[butanoic acid]", "values": [{"measurement": "mass density", "setting": "[1]", "result": "952.1 ± 6", "unit": "kg/m3"}, {"measurement": "refractive index", "setting": "[2]", "result": "1.3981 ± 0.0041"}]}
{"compound": "CC(C)OC(C)C", "note": "[diisopropyl ether]", "values": [{"measurement": "mass density", "setting": "[1]", "result": "723.8 ± 6", "unit": "kg/m3"}, {"measurement": "refractive index", "setting": "[2]", "result": "1.3674 ± 0.004"}]}
{"compound": "CO", "note": "[methanol]", "values": [{"measurement": "mass density", "setting": "[1]", "result": "791 ± 6", "unit": "kg/m3"}, {"measurement": "refractive index", "setting": "[2]", "result": "1.3281 ± 0.0041"}]}
{"compound": "O", "note": "[water]", "values": [{"measurement": "refractive index", "setting": "[2]", "result": "1.3324 ± 0.0041"}]}
